Test results from PMC12048435, “Multifunctional acyltransferases involved in the synthesis of triacylglycerol, fatty acid phytyl esters and plastoquinol esters in cyanobacteria” (Planta, 2025).

Assays:
slr2103 [1] = target: T1, slr2103 (Synechocystis sp. PCC 6803, UniProt P73931); assay: feeding of E. coli cells expressing slr2103, acyl-DPQ product by LC-MS/MS; type: cell-based; details: supplied as decylplastoquinone (1500 nmol in 5 ml), reduced in cells; acyl donor from E. coli; 30 C, 3 h
T1 construct: cloned in pQE-80L, expressed in E. coli; intact cells fed with substrate
T1 sequence (P73931 1-294): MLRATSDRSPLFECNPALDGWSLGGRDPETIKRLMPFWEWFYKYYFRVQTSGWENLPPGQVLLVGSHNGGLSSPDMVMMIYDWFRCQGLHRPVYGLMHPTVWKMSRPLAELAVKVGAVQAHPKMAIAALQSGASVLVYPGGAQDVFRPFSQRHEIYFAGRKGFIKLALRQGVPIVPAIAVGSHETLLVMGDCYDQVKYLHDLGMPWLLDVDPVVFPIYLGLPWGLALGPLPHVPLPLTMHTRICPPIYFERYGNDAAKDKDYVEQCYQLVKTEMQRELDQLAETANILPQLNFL

A0918 = target: T2, A0918 (Picosynechococcus sp. PCC 7002, UniProt B1XIY0); assay: in vitro acyltransferase assay with E. coli microsomal membranes, TAG product by MS; type: biochemical; details: 50 uM palmitoyl-CoA, 200 uM substrate, 20 mM MgCl2, 0.1% CHAPS, pH 7.4, 37 C, 20 min
T2 construct: gene plsC; amplified from genomic DNA, cloned in pQE-80L, expressed in E. coli; microsomal membrane fraction
T2 sequence (B1XIY0 1-291): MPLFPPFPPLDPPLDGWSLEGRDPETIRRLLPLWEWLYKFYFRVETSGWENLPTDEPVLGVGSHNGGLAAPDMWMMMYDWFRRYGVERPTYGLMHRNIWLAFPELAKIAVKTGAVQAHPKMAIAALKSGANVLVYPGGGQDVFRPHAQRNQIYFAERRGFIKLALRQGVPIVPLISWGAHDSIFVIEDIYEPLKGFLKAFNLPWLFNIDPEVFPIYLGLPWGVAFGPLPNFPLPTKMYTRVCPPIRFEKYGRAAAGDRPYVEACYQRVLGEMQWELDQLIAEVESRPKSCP

slr2103 [2] = target: T1, slr2103; assay: feeding of E. coli cells expressing slr2103, TAG product by MS; type: cell-based; details: 1500 nmol substrate in 5 ml; acyl donor from E. coli; 30 C, 3 h

| Structure (SMILES) | feeding of E. coli cells expressing slr2103, acyl-DPQ product by LC-MS/MS (slr2103 [1]) | in vitro acyltransferase assay with E. coli microsomal membranes, TAG product by (A0918) | feeding of E. coli cells expressing slr2103, TAG product by MS (slr2103 [2]) |
| --- | --- | --- | --- |
| CCCCCCCCCCc1cc(O)c(C)c(C)c1O [DPQ, decylplastoquinol] | slr2103 is capable of acylating one of the quinol hydroxyl groups of DPQ |  |  |
| CCCCCCCC(=O)OCC(CO)OC(=O)CCCCCCC (stereo not drawn) [dioctanoin] |  | confirming that A0918 harbors acyltransferase activity for the synthesis of TAG and FAPE | Accumulation of TAG after supplementation of E. coli cells expressing slr2103 with dioctanoin |
